Experimental data as given in patent US4711886A, “β-lactam derivatives as anti-inflammatory and antidegenerative agents” (Merck & Co., Inc., priority 1984, dated 1987).
Where two headings read alike, the source gives them in different places.

Target: T1, Human Polymorphonuclear Leukocyte Elastase (Homo sapiens, UniProt P08246)
T1 construct: Crude extract of human polymorphonuclear leukocytes (PMN) containing elastase activity; endogenous in cells; host or cells: human polymorphonuclear leukocytes (crude extract)
T1 sequence (P08246 30-247 limits assumed): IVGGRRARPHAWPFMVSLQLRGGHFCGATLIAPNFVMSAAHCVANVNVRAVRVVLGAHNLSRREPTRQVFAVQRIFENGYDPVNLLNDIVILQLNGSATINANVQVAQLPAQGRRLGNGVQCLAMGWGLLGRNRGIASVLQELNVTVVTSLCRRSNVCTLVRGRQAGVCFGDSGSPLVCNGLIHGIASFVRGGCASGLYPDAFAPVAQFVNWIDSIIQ
Experiment: Inhibition of human polymorphonuclear leukocyte elastase via hydrolysis of N-t-Boc-alanyl-alanyl-prolyl-alanine-p-nitroanilide
Assay type: biochemical
Conditions: 50% inhibition of enzyme activity 2 minutes after zero time, crude PMN extract, Boc-AAPAN substrate, pH 7.5
Protocol: Enzyme Assays for the Inhibition of Human Polymorphonuclear Leukocyte Elastase Via Hydrolysis of N-t-Boc-alanyl-alanyl-prolylalanine-p-nitroanilide
0.05M TES (N-tris[hydroxymethyl]methyl-2-amino-ethanesulfonic acid) buffer, pH 7.5.
0.2 mM N-t-Boc-alanyl-alanyl-prolyl-alanine-p-nitroanilide (Boc-AAPAN).
To prepare substrate, the solid (m.w. 550) was first dissolved in 10.0 ml DMSO. Buffer at pH 7.5 was then added to a final volume of 100 ml.
Crude extract of human polymorphonuclear leukocytes (PMN) containing elastase activity.
Inhibitors (β-lactam derivatives) to be tested dissolved in DMSO just before use.
To 1.0 ml of 0.2 mM Boc-AAPAN in a cuvette, 0.01-0.1 ml of DMSO with or without inhibitor was added. After mixing, a measurement was taken at 410 mμ to detect any spontaneous hydrolysis due to presence of test compound. 0.05 Milliliters of PMN extract was then added and the ΔOD/min at 410 mμ was measured and recorded. Beckman model 35 spectrophotometer was used.
The elastase activity in the crude PMN extract may vary from one preparation to another. A control of each new batch is run, and the volume added in the assay procedure is adjusted according to activity.

[1] = Table III, penems, read-out: IC50 (converted)

Structure (SMILES)	IC50 [1] [µM]	further results
CCSC1=C(C(=O)OCc2ccc([N+](=O)[O-])cc2)N2C(=O)C(C(C)OC(=O)OCc3ccccc3)C2S1 (stereo not shown)	0.367	–
CCSC1=C(C(=O)OCc2ccc([N+](=O)[O-])cc2)N2C(=O)C(C(C)O)C2S1 (stereo not shown)	4.87	–
COC1C(=O)N2C(C(=O)OCc3ccccc3)=C(COC(C)=O)SC12 (stereo not shown)	11	–
CCOC1=C(C(=O)OCc2ccccc2)N2C(=O)CC2S1 (stereo not shown)	6.55	–
O=C(OCc1ccccc1)C1C(=CCO)OC2CC(=O)N21 (stereo not shown) [B1 = CH2 C6 H5]	–	IC50 (Table IV, clavulanic acid series, read-out: IC50 (converted)): 10.4 µM
CC1=C(C(=O)OCc2ccccc2)N2C(=O)C[C@H]2S1 [R1 = H, n = 0, M = CH3, B = OCH2 C6 H5, benzyl 2-methylpenem-3-carboxylate]	14.5	–
O=C(O)[C@H]1/C(=C/CO)O[C@@H]2CC(=O)N21 [clavulanic acid, reference compound]	–	IC50 (Table IV, clavulanic acid series): inactive
